15 compounds from patent US20260000676A1, “CHROMAN DERIVATIVES AS ESTROGEN RECEPTOR DEGRADERS” (THE REGENTS OF THE UNIVERSITY OF MICHIGAN, priority 2022, published 2026) can be followed below.

Assay [1] has as its target T1, ER (Homo sapiens (Human), UniProt P03372). Put plainly: In-cell western (ICW) ER degradation assay in T47D cells. Format: cell-based. To be noted: 16 hrs; for DC50: ER degradation; for Dmax / T47D Dmax %: maximal ER degradation.
The next assay addresses ERα_LBD(GST) (Homo sapiens (Human), UniProt P03372). The assay is described as follows: LanthaScreen TR-FRET ERα competitive binding assay. To be noted: read-out: ERα HTRF IC50. As to the method:
• 1. ERα_LBD(GST) protein: 4 nM • 2. Tb Anti-GST: 2 nM • 3. Fluormone ES2 Green tracer: 3 nM • 4. Incubation time: 60 min • 5. DMSO: 1% • 6. Assay buffer: Adding 1M DTT to Nuclear receptor Buffer K for final 5 mM DTT. • 7. ZPE: 1% DMSO • 8. HPE: 1 μM ARV_471 • 9. LanthaScreen® TR-FRET ERα Competitive Binding Assay (ThermoFisher, #A15887)
• 1) Cherry pick 2 μL 10 mM compound stock to column 1 of a 384 intermediate plate • 2) Add 18 μL DMSO to column 1 to dilute compound to 1 mM. • 3) Transfer 10 μL 1 mM compound to column 1 of a LDV plate. • 2) Add 6 μl DMSO to column 2-10 of the LDV plate. • 3) Compounds undergo 3-fold serial dilution (3 μL+6 μL) in DMSO. • 4) Transfer 120 nL compound solution to assay plate. • ZPE: 120 nL 100% DMSO
Prepare complete nuclear receptor buffer K by adding 1 M DTT to nuclear receptor buffer K for a final concentration of 5 mM DTT. Complete nuclear receptor buffer K must be prepared fresh daily. Prepare 2× protein solution using complete nuclear receptor buffer K containing 8 nM ERα_LBD(GST) and 4 nM Tb Anti-GST. Then, prepare 2× Fluormone ES2 Green tracer (6 nM) using complete nuclear receptor buffer K. Add 6 μL 2× Fluormone ES2 green tracer into a compound plate (PerkinElmer 6008289) by dragonfly with one-tips-addition. Subsequently, add 6 μL 2× protein solution into the plate. Briefly and gently mix the 384-well plate on a plate shaker and incubate at room temperature protected from light for 60 min. The plate is sealed with a cover to minimize evaporation. Read the plate at wavelengths of 520 nm and 495 nm. Calculate the TR-FRET ratio by dividing the emission signal at 520 nm by the emission signal at 495 nm. Generate a binding curve by plotting the emission ratio vs. the log [ligand]. To determine the IC50 value, fit the data using XL-fit for a sigmoidal dose-response.
On the technique in general: Time-resolved FRET reads energy transfer from a long-lived donor to a nearby acceptor.

In a further assay the target is CRBN/DDB1 (Homo sapiens (Human), UniProt Q96SW2). Put plainly: HTRF binding assay to CRBN/DDB1. The conditions noted are these: read-out: CRBN HTRF IC50. The procedure: The binding potency was determined using HTRF assay technology (Perkin Elmer). Compounds were serially diluted in DMSO and 0.2 μL volume was transferred to white 384-well plate.
Assay [2] addresses T1, ER. The assay is described as follows: In-cell western (ICW) ER degradation assay in MCF-7 cells. It counts as cell-based. The conditions noted are these: MCF7, 16 hrs; for DC50: ER degradation; for Dmax: MCF7, maximal ER degradation; for MCF7 Dmax %: maximal ER degradation.

Sequence of ERα_LBD(GST) (P03372 311-547): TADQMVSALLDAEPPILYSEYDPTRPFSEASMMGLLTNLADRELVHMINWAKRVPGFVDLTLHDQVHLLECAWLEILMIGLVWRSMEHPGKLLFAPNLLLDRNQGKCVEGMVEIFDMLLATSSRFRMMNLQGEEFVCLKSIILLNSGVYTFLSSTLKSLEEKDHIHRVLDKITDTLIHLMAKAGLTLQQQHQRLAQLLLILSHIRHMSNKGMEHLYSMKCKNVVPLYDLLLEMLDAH
Sequence of CRBN/DDB1 (Q96SW2 whole entry): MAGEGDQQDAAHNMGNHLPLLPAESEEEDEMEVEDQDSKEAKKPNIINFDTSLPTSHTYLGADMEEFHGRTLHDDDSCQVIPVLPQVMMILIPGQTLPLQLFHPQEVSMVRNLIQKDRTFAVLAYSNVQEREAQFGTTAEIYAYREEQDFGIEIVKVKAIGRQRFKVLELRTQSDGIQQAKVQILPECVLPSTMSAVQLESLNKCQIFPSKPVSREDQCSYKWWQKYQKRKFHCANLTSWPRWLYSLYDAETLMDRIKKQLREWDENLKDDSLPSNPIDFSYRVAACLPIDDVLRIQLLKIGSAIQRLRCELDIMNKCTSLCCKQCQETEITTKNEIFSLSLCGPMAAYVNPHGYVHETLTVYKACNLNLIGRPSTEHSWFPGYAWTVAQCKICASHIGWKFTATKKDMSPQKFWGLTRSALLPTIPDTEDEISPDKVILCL
Sequence of CRBN/DDB1 (Q16531 whole entry partner): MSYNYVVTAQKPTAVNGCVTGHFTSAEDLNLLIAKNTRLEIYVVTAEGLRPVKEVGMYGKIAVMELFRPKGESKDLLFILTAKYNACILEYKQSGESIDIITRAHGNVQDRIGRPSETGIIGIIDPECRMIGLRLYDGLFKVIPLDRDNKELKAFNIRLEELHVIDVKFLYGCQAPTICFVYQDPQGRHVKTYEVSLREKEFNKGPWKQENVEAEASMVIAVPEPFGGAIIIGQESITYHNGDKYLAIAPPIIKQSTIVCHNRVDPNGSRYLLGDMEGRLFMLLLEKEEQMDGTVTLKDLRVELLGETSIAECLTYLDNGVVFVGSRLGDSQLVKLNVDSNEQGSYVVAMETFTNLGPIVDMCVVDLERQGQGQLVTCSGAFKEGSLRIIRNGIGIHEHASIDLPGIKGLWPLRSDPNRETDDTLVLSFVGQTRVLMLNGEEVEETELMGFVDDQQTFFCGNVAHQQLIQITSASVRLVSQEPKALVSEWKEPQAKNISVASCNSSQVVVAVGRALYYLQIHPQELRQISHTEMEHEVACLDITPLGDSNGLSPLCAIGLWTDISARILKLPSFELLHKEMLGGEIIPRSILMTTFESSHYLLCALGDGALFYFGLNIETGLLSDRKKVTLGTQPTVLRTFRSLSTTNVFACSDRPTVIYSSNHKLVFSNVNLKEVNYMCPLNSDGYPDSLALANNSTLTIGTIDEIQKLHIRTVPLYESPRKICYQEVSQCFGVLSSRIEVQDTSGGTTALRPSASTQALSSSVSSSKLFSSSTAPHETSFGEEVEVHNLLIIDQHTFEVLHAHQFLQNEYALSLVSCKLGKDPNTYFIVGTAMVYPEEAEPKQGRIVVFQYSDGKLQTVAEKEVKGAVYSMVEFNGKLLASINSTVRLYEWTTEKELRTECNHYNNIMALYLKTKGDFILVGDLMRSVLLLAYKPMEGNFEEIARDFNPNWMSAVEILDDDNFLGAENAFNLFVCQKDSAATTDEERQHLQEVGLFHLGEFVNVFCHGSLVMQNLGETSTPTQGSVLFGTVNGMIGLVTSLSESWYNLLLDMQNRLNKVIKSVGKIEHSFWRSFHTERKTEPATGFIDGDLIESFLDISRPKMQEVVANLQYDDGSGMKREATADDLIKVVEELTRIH
T1 sequence (P03372 whole entry): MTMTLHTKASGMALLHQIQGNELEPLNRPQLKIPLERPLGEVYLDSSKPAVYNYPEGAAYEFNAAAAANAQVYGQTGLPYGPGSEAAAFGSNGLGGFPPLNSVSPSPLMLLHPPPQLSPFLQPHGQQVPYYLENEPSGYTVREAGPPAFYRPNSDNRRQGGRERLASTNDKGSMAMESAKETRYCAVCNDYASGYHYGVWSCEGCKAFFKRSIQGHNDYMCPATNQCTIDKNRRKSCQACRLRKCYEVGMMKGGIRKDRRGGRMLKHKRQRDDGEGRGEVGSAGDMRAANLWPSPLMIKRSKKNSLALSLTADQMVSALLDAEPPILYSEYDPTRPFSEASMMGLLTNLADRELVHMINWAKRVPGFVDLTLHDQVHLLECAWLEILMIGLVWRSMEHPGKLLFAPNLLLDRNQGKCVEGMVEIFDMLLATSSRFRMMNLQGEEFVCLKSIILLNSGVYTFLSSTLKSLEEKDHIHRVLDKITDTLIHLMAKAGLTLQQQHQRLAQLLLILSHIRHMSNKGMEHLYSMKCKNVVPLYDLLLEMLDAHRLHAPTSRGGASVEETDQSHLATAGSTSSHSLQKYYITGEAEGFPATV

One may read the DC50 as the concentration giving 50% degradation. Broadly, the Dmax is the largest share of the target that was removed. Low values mean shallow degradation, high ones deep degradation. A word on the IC50: it is the concentration that inhibits the measured activity by half. On to `COc1cc(N2CCC(CN3CCN4c5ccc6c(c5OC[C@H]4C3)CN(C3CCC(=O)NC3=O)C6=O)CC2)ccc1[C@@H]1c2ccc(O)cc2OC[C@@H]1c1ccccc1` (single isomer, unassigned) [Compound A77], for which the 50% degradation concentration (DC50) at ER [1] and at ER [2] was below 1 nM throughout. Also, the greatest degradation seen (Dmax) on ER [1] and at ER [2] was 50 to 75% in each case. The IC50 on ERα_LBD(GST) is below 5 nM; on CRBN/DDB1 it was 500 to 5000 nM.
Turning to `COc1cc(N2CCC(CN3CCN(c4ccc(C(=O)NC5CCC(=O)NC5=O)nc4)CC3)CC2)c(F)cc1[C@H]1c2ccc(O)cc2OC[C@H]1c1ccccc1` (stereo partly drawn) [Compound A110, N-(2,6-dioxopiperidin-3-yl)-5-(4-((1-(2-fluoro-4-((3R,4R)-7-hydroxy-3-phenylchroman-4-yl)-5-methoxyphenyl)piperidin-4-yl)methyl)piperazin-1-yl)picolinamide], the DC50 on ER [1] and on ER [2] was below 1 nM each time. Moreover, on ER [1], the “T47D Dmax %” value was “B (“B”: >50% and <75%)”. The IC50 on ERα_LBD(GST) was below 5 nM; at CRBN/DDB1, above 5000 nM. Moreover, the “MCF7 Dmax %” value at ER [2] was “B (“B”: >50% and <75%)”.
As to `O=C1CC[C@H](NC(=O)c2ccc3c(n2)OC[C@H]2CN(CC4CCC5(CC4)CN(c4ccc([C@@H]6c7ccc(O)cc7OC[C@@H]6c6ccccc6)cc4)C5)CCN32)C(=O)N1` [Compound A142, (R)-N-((S)-2,6-dioxopiperidin-3-yl)-3-((2-(4-((3S,4R)-7-hydroxy-3-phenylchroman-4-yl)phenyl)-2-azaspiro[3.5]nonan-7-yl)methyl)-1,2,3,4,4a,5-hexahydropyrazino[1,2-d]pyrido[2,3-b][1,4]oxazine-8-carboxamide], the DC50 at ER [1] is below 1 nM; on ER [2], 1 to 10 nM. In addition, the Dmax on ER [1] and at ER [2] was 50 to 75% in each case. For the same compound, the IC50 at ERα_LBD(GST) was below 5 nM; on CRBN/DDB1, 500 to 5000 nM.
Take `O=C1CCC(N2Cc3c(ccc4c3OC[C@H]3CN(CC5CCN(c6ccc([C@H]7c8ccc(O)cc8OC[C@H]7c7ccccc7)cn6)CC5)CCN43)C2=O)C(=O)N1` (single isomer, unassigned) [Compound A64]: the DC50 at ER [1] and on ER [2] was 1 to 10 nM each time. For the same compound, the Dmax at ER [1] was 50 to 75%; at ER [2], 25 to 50%. Besides, the IC50 at ERα_LBD(GST) was below 5 nM; at CRBN/DDB1 it was 50 to 500 nM.
For the compound `COc1cc(N2CCC(CN3CCN4c5cc6c(cc5OC[C@H]4C3)C(=O)N(C3CCC(=O)NC3=O)C6)CC2)ccc1[C@@H]1c2ccc(O)cc2OC[C@@H]1c1ccccc1` (single isomer, unassigned) [Compound A84], the Dmax on ER [1] and at ER [2] was 50 to 75% in each case. The IC50 on ERα_LBD(GST) is below 5 nM.
At ER [1], `O=C1CC[C@H](N2Cc3cc4c(cc3C2=O)OC[C@@H]2CN(CC3CC5(CCN(c6ccc([C@@H]7c8ccc(O)cc8OC[C@@H]7c7ccccc7)cc6)CC5)C3)CCN42)C(=O)N1` (single isomer, unassigned) [Compound A59] returned a DC50 below 1 nM and a Dmax of at least 75%. Further, the IC50 at ERα_LBD(GST) was below 5 nM. At ER [2], this compound displayed a DC50 of 1 to 10 nM and a maximal degradation (Dmax) of 50 to 75%.
As to `O=C1CCC(N2Cc3c(ccc4c3OC[C@H]3CN(CC5CC6(CCN(c7ccc([C@@H]8c9ccc(O)cc9OC[C@@H]8c8ccccc8)cn7)CC6)C5)CCN43)C2=O)C(=O)N1` (single isomer, unassigned) [Compound A66], on ER [1], the 50% degradation concentration (DC50) is 1 to 10 nM; the “T47D Dmax %” value was “B (“B”: >50% and <75%)”. Further, the IC50 at ERα_LBD(GST) was at least 5 nM. In addition, at ER [2], the DC50 is 1 to 10 nM; the “MCF7 Dmax %” value is “B (“B”: >50% and <75%)”.
With `O=C1CCC(N2Cc3c(ccc4c3OC[C@H]3CN(CC5CCN(c6ncc([C@H]7c8ccc(O)cc8OC[C@H]7c7ccccc7)cn6)CC5)CCN43)C2=O)C(=O)N1` (single isomer, unassigned) [Compound A35], the half-maximal degradation concentration (DC50) on ER [1] and on ER [2] was 1 to 10 nM each time. Also, the Dmax on ER [1] is 50 to 75%; on ER [2], 25 to 50%. In addition, the half-inhibitory concentration (IC50) on ERα_LBD(GST) is below 5 nM; on CRBN/DDB1 it was 50 to 500 nM.
Turning to `O=C1CCC(N2C(=O)c3cc4c(cc3C2=O)CN(CC(=O)N2CC3(CCN(c5ccc([C@@H]6c7ccc(O)cc7OC[C@@H]6c6ccccc6)cc5)CC3)C2)C4)C(=O)N1` (single isomer, unassigned) [Compound A26], the figures for the half-maximal inhibitory concentration (IC50) on ERα_LBD(GST) and at CRBN/DDB1 were below 5 nM and 50 to 500 nM, respectively.
On ER [1], `O=C1CCC(N2Cc3cc4c(cc3C2=O)OCC42CCN(CC3CCC4(CC3)CN(c3ccc([C@H]5c6ccc(O)cc6OC[C@H]5c5ccccc5)cc3)C4)CC2)C(=O)N1` (stereo partly drawn) [Compound A99, 3-(1′-((2-(4-((3R,4S)-7-hydroxy-3-phenylchroman-4-yl)phenyl)-2-azaspiro[3.5]nonan-7-yl)methyl)-7-oxo-5,7-dihydro-2H,6H-spiro[furo[2,3-f]isoindole-3,4′-piperidin]-6-yl)piperidine-2,6-dione] came in with a DC50 below 1 nM and a maximal degradation (Dmax) of 50 to 75%. Also, the IC50 on ERα_LBD(GST) is below 5 nM. On ER [2], this compound came in with a DC50 below 1 nM and a Dmax of 50 to 75%.
Turning to `COc1cc(N2CCC(CN3CCN4c5ccc6c(c5OC[C@@H]4C3)CN([C@@H]3CCC(=O)NC3=O)C6=O)CC2)c(F)cc1[C@@H]1c2ccc(O)cc2OC[C@@H]1c1ccccc1` (single isomer, unassigned) [Compound A106], the DC50 on ER [1] and on ER [2] was below 1 nM each time. Besides, the greatest degradation seen (Dmax) on ER [1] and on ER [2] was at least 75% in each case. In addition, the IC50 on ERα_LBD(GST) was below 5 nM.
As for `COc1cc(N2CCC(CN3CCN4c5cc6c(cc5OC[C@H]4C3)C(=O)N([C@@H]3CCC(=O)NC3=O)C6)CC2)ccc1[C@H]1c2ccc(O)cc2OC[C@H]1c1ccccc1` (single isomer, unassigned) [Compound A122], at ER [1], the DC50 is below 1 nM and the Dmax is at least 75%. Moreover, the IC50 on ERα_LBD(GST) was below 5 nM. On ER [2], the 50% degradation concentration (DC50) was below 1 nM and the Dmax was at least 75%.
Turning to `O=C1CC[C@@H](N2Cc3c(ccc4c3OC[C@@H]3CN(C[C@@H]5COC6(CCN(c7ccc([C@H]8c9ccc(O)cc9OC[C@H]8c8ccccc8)cc7)CC6)C5)CCN43)C2=O)C(=O)N1` (single isomer, unassigned) [Compound A132], the DC50 at ER [1] and at ER [2] was 1 to 10 nM throughout. The Dmax on ER [1] and at ER [2] was 50 to 75% in each case. Also, the IC50 on ERα_LBD(GST) was below 5 nM.
Consider `O=C1CCC(N2Cc3cc(N4CCN(CC5CC6(CCN(c7ccc([C@@H]8c9ccc(O)cc9OC[C@@H]8c8ccccc8)cn7)CC6)C5)CC4)ccc3C2=O)C(=O)N1` (single isomer, unassigned) [Compound A68], for which, at ER [1], the DC50 was 1 to 10 nM and the “T47D Dmax %” value was “A (“A”; >=75%)”. In addition, the IC50 at ERα_LBD(GST) is below 5 nM. On ER [2], the 50% degradation concentration (DC50) is 1 to 10 nM; the “MCF7 Dmax %” value is “B (“B”: >50% and <75%)”.
Turning to `O=C1CCC(N2C(=O)c3cc4c(cc3C2=O)CN(CC(=O)N2CCC3(CC2)CCN(c2ccc([C@H]5c6ccc(O)cc6OC[C@H]5c5ccccc5)cc2)CC3)C4)C(=O)N1` (stereo partly drawn) [Compound A40, 2-(2,6-dioxopiperidin-3-yl)-6-(2-(9-(4-((3R,4S)-7-hydroxy-3-phenylchroman-4-yl)phenyl)-3,9-diazaspiro[5.5]undecan-3-yl)-2-oxoethyl)-6,7-dihydropyrrolo[3,4-f]isoindole-1,3(2H,5H)-dione], at ER [1], the DC50 was below 1 nM and the maximal degradation (Dmax) was in the range of 50 to 75%. Moreover, on ERα_LBD(GST), the IC50 is at least 5 nM. At ER [2], the DC50 lay in the range of 1 to 10 nM and the Dmax lay within 50 to 75%.
